According to patent US11654178B2, “Cyclic prosaposin peptides and uses thereof” (CHILDREN'S MEDICAL CENTER CORPORATION, priority 2014, dated 2023):
Where a SMILES comes first, the peptide text is derived from it. Where no end group is shown, it is not given here. [ ]: non-standard residue; d: D form.

Columns and labels:
Tsp-1 = Tsp-1 expression in lungs of mice pretreated with PC3M-LN4 conditioned media (western blot); type: in vivo, C57BL6/J mice; settings: dose of 10 mg/kg, 3 days, LN4 CM
Procedure: The activity of the 1,3-d-amino acid Psap peptide and the native Psap peptide were tested in vivo. The peptides were systematically administered to C57BL6/J mice that were pretreated with conditioned media (CM) from PC3M-LN4 (LN4) cells, which previously mimicked the systemic properties of metastatic tumors by repressing the expression of Tsp-1 in the lungs of mice (3, 4). After 3 days of treatment with LN4 CM alone or in combination with two different doses (10 mg/kg/day and 30 mg/kg/day) of d- and 1-amino acid peptides (independently) protein pools were prepared from the harvested lungs of each treatment group. The level of Tsp-1 expression in the lungs of these mice were assessed by western blot analysis. It was observed that the 1,3-d-amino acid peptide stimulated Tsp-1 3-fold greater than the native peptide (FIG. 12B). […] Based on the observation that the in vitro activity of the two peptides was virtually identical, it was concluded that the difference in activity in vivo was due to a difference in stability.

DF14 cells = assay: PDX model of established ovarian cancer metastases, d-amino acid Psap peptide; type: in vivo; parameters: mice that died from adverse side effects / decrease of total body weight: dose or concentration left out as unconfirmed; settings: for body weight: 40 mg/kg QD, FIG. 16
Text: 75 percent of ovarian cancer patients already have disseminated disease at the time of first diagnosis (E. Lengyel, Ovarian cancer development and metastasis. Am J Pathol 177, 1053-1064 (2010)). For these patients inhibiting metastasis would have limited therapeutic benefit. Rather, these patients require a therapeutic agent that can regress or, at the very least, stabilize existing metastases. Whether the d-amino acid Psap peptide could have therapeutic efficacy in a model of established metastatic dissemination was investigated. 1×10^6 DF14 cells, expressing firefly luciferase, were injected into the peritoneal cavity of SCID mice to mimic the route of dissemination of human ovarian cancer. The growth of metastatic colonies in the mice in real time were monitored via relative luciferase intensity and when the average intensity of the luciferase signal was 0.5-1×10^8 RLU, treatment with vehicle (saline), the d-amino acid peptide (40 mg/kg QD), or cisplatin (4 mg/kg QOD) was started. […] However, during those 20 days half of the cisplatin treated mice died from adverse side effects of the drug as defined by total body weight, which decreased by 40% (FIG. 13C). Moreover, after 20 days the tumors in the group of cisplatin treated mice that survived began to grow, despite continued treatment with cisplatin, and all the remaining mice died within 10 days (FIG. 13A).
The livers and spleens of the Psap peptide treated mice were examined histologically (H&E) to determine whether there were any micrometastases.
Metastases in the peritoneal cavity recruited Cd11b^+/Gr1^+ bone marrow derived cells, analogous to lung metastases was investigated (3). […] The fluid was FACS sorted from these mice to assess the population of Cd11^+/Gr1^+ bone marrow derived cells. […] Based on these findings it was concluded that the Psap peptide was able to dramatically regress established metastases to the point where no detectable lesions could be found.

[1] = Stability in human plasma at 37° C., read out as Tsp-1 stimulation in WI-38 fibroblasts (ELISA); type: in vitro ADME; settings: 24 hours
Procedure: The cyclic peptide DWLPK (SEQ ID NO: 1) was also tested for stability in human plasma compared to the linear peptide dWIP (SEQ ID NO: 5). Each peptide was incubated in human plasma at 37 degrees Celsius, for 2, 4, 8, or 24 hours.
Cyclization also has the effect of increasing the stability of peptides by forcing them into a conformation that is not recognized by most naturally occurring proteases (9, 10, 14-18). The stability of the cyclic peptide to the linear d-amino acid peptide in human plasma was compared.

[2] = test system: primary human ovarian cancer cell lines; assay: Cell number (Wst-1) and apoptosis (Annexin V/PI FACS) of patient derived ovarian cancer cell lines; type: cell-based
Text: FIGS. 12A-12E show stimulation of Tsp-1 and its effects on ovarian cancer cell growth and survival. FIG. 12A is a western blot of Tsp-1 and β-actin in WI-38 lung fibroblasts that were untreated (−) or treated with native DWLP (SEQ ID NO: 6), L-amino acid, prosaposin peptide (WT), dWIP (SEQ ID NO: 5, lower case d and 1 indicate D-amino acids) prosaposin peptide (d1.3) or DwLp (SEQ ID NO: 7, lower case w and p indicate D-amino acids) prosaposin peptide (d2,4): […] is a western blot of Tsp-1 and β-actin in mouse lung tissue harvested from mice treated with metastatic prostate cancer cell conditioned media alone (−) or in combination with DWLP (SEQ ID NO: 6) prosaposin peptide (WT) or dWIP (SEQ ID NO: 5, lower case d and l indicate D-amino acids) prosaposin peptide (d1,3 peptide) at doses of 10 and 30 mg/kg/day for 3 days; FIG. 12C is a western blot of CD36 and β-actin in 8 patient derived ovarian cancer cell lines; FIG. 12D is a plot of cell number as measured by Wst-1 assay of a patient derived ovarian cancer cell line treated with 1 μM recombinant human Tsp-1 (rhTsp-1) for 24, 48 and 72 hours; and FIG. 12E is a FACS analysis of Annexin V and PI of a patient derived ovarian cancer cell line treated with 1 μM recombinant human Tsp-1 (rhTsp-1) for 48 hours.
In order to test the efficacy of the d-amino acid Psap peptide, a suitable tumor model that would represent a potential clinical application for the peptide, was determined. Given that Psap, and the peptide derived from it, stimulates Tsp-1 in bone marrow derived cells that are recruited to sites of metastasis, a specific type of cancer that expressed the receptor for Tsp-1 that mediates its pro-apoptotic activity, CD36 was sought to be identified (5). It has been reported that serous ovarian epithelial cells and human ovarian cancer cells express CD36 (11-13). […] Three of these cell lines were treated with recombinant human Tsp-1 for up to 72 hours and determined its effect on cell number and apoptosis.

thrombospondin-1 (Tsp-1) = assay: Tsp-1 activation in cultured cells by Western blot; type: cell-based
Procedure: Cells were cultured and contacted with 4 micrograms/mL or 10 micrograms/mL of each peptide and the level of thrombospondin-1 (Tsp-1) activation was measured by Western blot. Tsp-1 has been previously shown to be activated by Saposin A protein.

For “native peptide: native DWLP (SEQ ID NO: 6), L-amino acid, prosaposin peptide (WT)”, the “Tsp-1 stimulation in lungs” value (Tsp-1) was “did not significantly stimulate Tsp-1”.

For `CC(C)C[C@@H](NC(=O)[C@H](Cc1c[nH]c2ccccc12)NC(=O)[C@H](N)CC(=O)O)C(=O)N1CCC[C@H]1C(=O)O` [linear dWIP, reference compound] (H-[dD]W[dL]P-OH; N-terminus and C-terminus assumed), the body weight (DF14 cells; listed as Psap peptide) was “no loss of body weight”, the body weight (DF14 cells; listed as psap peptide) was “no effect on body weight” and the “ability to activate Tsp-1 after incubation in human plasma” value ([1]; 37 degrees Celsius, FIG. 3) was “significantly less activity”. For the same compound, the “Tsp-1 stimulation after incubation in human plasma” value ([1]; 37° C., ELISA) was “no longer able to stimulate Tsp-1”.

For `N.N.[Cl][Pt][Cl]` [cisplatin], the “necrosis (low Anexin V and high PI staining)” value ([2]; FIG. 12E, compared with Tsp-1 treatment) was “much greater percentage of ovarian cancer cells underwent necrosis”, the “time until all remaining mice died” value (DF14 cells; after day 20 of treatment) was at most 10 days and the “decrease of total body weight” value (DF14 cells; during first 20 days) was 40%. The “mice that died from adverse side effects” value (DF14 cells; during first 20 days) was “half”, the “tumor volume as determined by luciferase intensity” value (DF14 cells; first 20 days of treatment, peptide 40 mg/kg QD, cisplatin 4 mg/kg QOD) was “able to regress tumor volume” and the “tumor growth after 20 days despite continued treatment” value (DF14 cells; surviving mice, cisplatin 4 mg/kg QOD) was “began to grow”.

In the case of “RhTsp-1: recombinant human Tsp-1 (thrombospondin-1)”, the “apoptotic cells (Anexin V positivity) by FACS” value ([2]; 1 μM, 48 hours, FIG. 12E) is reported as 30-60% and the “decrease in total cell number, of the original number of cells plated” value ([2]; three cell lines, up to 72 hours, 1 μM, FIG. 12D) is reported as “up to 50%”.

With `CC(C)C[C@@H]1NC(=O)[C@H](Cc2c[nH]c3ccccc23)NC(=O)[C@@H](CC(=O)O)NC(=O)[C@H](CCCCN)NC(=O)[C@@H]2CCCN2C1=O` [cyclic dWLPK] (cyclo(K[dD]WLP)) the “effectiveness at increasing the level of Tsp-1” value (thrombospondin-1 (Tsp-1); cyclic peptides, 4 micrograms/mL or 10 micrograms/mL, Western blot, FIG. 2) was “least effective”.

With “linear DWGPK: linear version of peptide DWGPK (SEQ ID NO: 2) (not fully specified) [reference compound]” the “effectiveness at increasing Tsp-1, linear versions of the peptides” value (thrombospondin-1 (Tsp-1); similar study with linear versions) was “more effective than linear DWLPK”.
